17 compounds from patent US20050090505A1, “Methods of reducing risk of infection from pathogens” (priority 2003, published 2005) can be followed below.

Counter-ions that a name gives are not always drawn.

Series [1] has as its target T1, airway epithelial sodium currents (sodium channel) (UniProt A0A8I3MKE6+A0A8I3Q679+Q95165).
T1 sequence (A0A8I3MKE6 1-646): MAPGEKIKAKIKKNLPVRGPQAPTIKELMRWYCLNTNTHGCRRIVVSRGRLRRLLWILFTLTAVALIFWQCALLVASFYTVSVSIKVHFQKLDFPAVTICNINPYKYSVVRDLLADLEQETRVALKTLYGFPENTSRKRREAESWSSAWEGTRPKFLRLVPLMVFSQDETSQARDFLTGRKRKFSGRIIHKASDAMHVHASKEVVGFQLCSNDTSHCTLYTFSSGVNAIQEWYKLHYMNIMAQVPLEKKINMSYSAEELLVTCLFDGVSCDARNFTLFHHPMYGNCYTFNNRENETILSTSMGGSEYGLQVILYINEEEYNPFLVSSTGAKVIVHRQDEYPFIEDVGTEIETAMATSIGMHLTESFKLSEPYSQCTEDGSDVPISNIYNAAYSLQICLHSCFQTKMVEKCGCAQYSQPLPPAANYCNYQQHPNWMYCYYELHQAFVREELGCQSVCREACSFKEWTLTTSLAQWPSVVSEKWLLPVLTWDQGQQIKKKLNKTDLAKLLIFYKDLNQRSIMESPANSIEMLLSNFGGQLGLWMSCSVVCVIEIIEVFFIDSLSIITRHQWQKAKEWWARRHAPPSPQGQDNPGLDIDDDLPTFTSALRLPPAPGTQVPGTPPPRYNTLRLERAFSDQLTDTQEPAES
T1 sequence (A0A8I3Q679 1-649): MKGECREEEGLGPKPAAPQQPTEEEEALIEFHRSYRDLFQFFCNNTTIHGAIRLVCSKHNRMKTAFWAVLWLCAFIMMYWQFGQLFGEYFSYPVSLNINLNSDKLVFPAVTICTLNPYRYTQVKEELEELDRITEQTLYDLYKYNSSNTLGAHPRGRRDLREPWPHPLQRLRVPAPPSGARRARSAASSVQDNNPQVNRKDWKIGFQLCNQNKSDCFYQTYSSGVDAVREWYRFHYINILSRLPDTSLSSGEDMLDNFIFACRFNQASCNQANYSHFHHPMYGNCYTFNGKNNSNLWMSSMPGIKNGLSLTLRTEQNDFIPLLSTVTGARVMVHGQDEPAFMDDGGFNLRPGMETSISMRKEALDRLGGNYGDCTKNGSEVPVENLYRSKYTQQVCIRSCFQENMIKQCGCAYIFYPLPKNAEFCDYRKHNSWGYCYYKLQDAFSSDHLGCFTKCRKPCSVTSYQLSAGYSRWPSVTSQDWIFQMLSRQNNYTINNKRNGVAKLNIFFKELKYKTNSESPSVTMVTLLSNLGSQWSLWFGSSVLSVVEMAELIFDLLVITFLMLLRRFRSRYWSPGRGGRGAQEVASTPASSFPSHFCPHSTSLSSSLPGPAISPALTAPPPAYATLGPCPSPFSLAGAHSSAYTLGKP
T1 sequence (Q95165 1-641): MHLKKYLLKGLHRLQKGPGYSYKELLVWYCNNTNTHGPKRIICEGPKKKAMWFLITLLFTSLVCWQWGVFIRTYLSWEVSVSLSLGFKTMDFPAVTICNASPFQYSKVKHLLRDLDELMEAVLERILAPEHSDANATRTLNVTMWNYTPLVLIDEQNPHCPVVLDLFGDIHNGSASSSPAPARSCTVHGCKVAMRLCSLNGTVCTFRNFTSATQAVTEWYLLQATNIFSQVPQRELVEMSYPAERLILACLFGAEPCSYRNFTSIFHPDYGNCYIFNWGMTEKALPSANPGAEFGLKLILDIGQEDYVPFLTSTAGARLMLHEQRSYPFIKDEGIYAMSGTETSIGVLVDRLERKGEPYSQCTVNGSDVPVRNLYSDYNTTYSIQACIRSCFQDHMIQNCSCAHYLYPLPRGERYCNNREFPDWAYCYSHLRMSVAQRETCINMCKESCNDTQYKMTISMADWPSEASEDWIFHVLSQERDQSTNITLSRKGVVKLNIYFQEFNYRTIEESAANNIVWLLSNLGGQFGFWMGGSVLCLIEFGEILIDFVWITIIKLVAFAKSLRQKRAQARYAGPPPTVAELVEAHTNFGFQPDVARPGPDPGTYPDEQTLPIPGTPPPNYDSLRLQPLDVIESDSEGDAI
The series can be described thus: Sodium channel blocking activity: inhibition of short circuit current (ISC) in airway epithelial monolayers mounted in Ussing chambers. The series is classed as cell-based, human, dog, sheep or rodent. Particulars: for Fold Amiloride** (PSA 4022 = 100): relative potency for PSA 4022 = 100 using EC50 from PSA 4022 in same run; for EC50: Selected Alaphatic Pyrazinoylguanidines (Formula II), mean ± spread, read-out: EC50. As to the method:
In Vitro Measure of Sodium Channel Blocking Activity and Reversibility
One assay used to assess mechanism of action and/or potency of the compounds of the present invention involves the determination of lumenal drug inhibition of airway epithelial sodium currents measured under short circuit current (ISC) using airway epithelial monolayers mounted in Ussing chambers. Cells obtained from freshly excised human, dog, sheep or rodent airways are seeded onto porous 0.4 micron Snapwell™ Inserts (CoStar), cultured at air-liquid interface (ALI) conditions in hormonally defined media, and assayed for sodium transport activity (ISC) while bathed in Krebs Bicarbonate Ringer (KBR) in Using chambers. All test drug additions are to the lumenal bath with half-log dose addition protocols (from 1×10^−11 M to 3×10^−5 M), and the cumulative change in ISC (inhibition) recorded. All drugs are prepared in dimethyl sulfoxide as stock solutions at a concentration of 1×10^−2 M and stored at −20° C. Eight preparations are typically run in parallel; two preparations per run incorporate amiloride and/or benzamil as positive controls. After the maximal concentration (5×10^−5 M) is administered, the lumenal bath is exchanged three times with fresh drug-free KBR solution, and the resultant ISC measured after each wash for approximately 5 minutes in duration. Reversibility is defined as the percent return to the baseline value for sodium current after the third wash. All data from the voltage clamps are collected via a computer interface and analyzed off-line.
Dose-effect relationships for all compounds are considered and analyzed by the Prism 3.0 program. IC50 values, maximal effective concentrations, and reversibility are calculated and compared to amiloride and benzamil as positive controls.

The term melting point denotes the temperature of the solid-liquid transition. `N=C(NCCCCCCCCCCN)NC(=O)c1nc(Cl)c(N)nc1N` (as salt: hydrochloride) [compound 19487, N-(10-aminodecyl)-N′-(3,5-diamino-6-chloropyrazine-2-carbonyl)-guanidine dihydrochloride] had a melting point of 168 to 170 °C. The compound `N=C(N)NCCCCCCCCNC(=N)NC(=O)c1nc(Cl)c(N)nc1N` (as salt: hydrochloride) [compound 19604, N-{8-[N′-(3,5-diamino-6-chloropyrazine-2-carbonyl)guanidino]octyl}-guanidine dihydrochloride] had a melting point of 130 to 132 °C.

The compound `N=C(N)NCCCCCCCCCCNC(=N)NC(=O)c1nc(Cl)c(N)nc1N` (as salt: hydrochloride) [compound 23608, N-{10-[N′-(3,5-diamino-6-chloropyrazine-2-carbonyl)guanidino]-decyl}guanidine dihydrochloride] had a melting point of 156 to 158 °C. The same measure, in the same setting: under `N=C(NCCCCCCCCCCCCN)NC(=O)c1nc(Cl)c(N)nc1N` (as salt: hydrochloride) [compound 23609, N-(12-aminododecyl)-N′-(3,5-diamino-6-chloropyrazine-2-carbonyl)-guanidine dihydrochloride] stands 235 to 237 °C; under `N=C(NCCCCCCCCCCCN)NC(=O)c1nc(Cl)c(N)nc1N` (as salt: hydrochloride) [compound 23682, N-(11-aminoundecyl)-N′-(3,5-diamino-6-chloropyrazine-2-carbonyl)guanidine dihydrochloride], 220 to 222 °C; under `N=C(N)NCCCCCCCCCCCCNC(=N)NC(=O)c1nc(Cl)c(N)nc1N` (as salt: hydrochloride) [compound 23683, N-{12-[N′-(3,5-diamino-6-chloropyrazine-2-carbonyl)guanidino]dodecyl)guanidine dihydrochloride], 145 to 147 °C. Same read-out and setting: under `N=C(N)NCCCCCCCCCCCNC(=N)NC(=O)c1nc(Cl)c(N)nc1N` (as salt: hydrochloride) [compound 23991, N-{11-[N′-(3,5-diamino-6-chloropyrazine-2-carbonyl)guanidino]-undecyl}guanidine dihydrochloride] stands 151 to 153 °C; under `N=C(NCCCCC1CCN(CCO)CC1)NC(=O)c1nc(Cl)c(N)nc1N` (as salt: hydrochloride) [compound 25193, N-(3,5-diamino-6-chloropyrazine-2-carbonyl)-N′-{4-[1-(2-hydroxyethyl)piperidin-4-yl]butyl}guanidine dihydrochloride], 168 to 170 °C.

On to `N=C(NCCCCc1ccc(OCC(O)COCC(O)CO)cc1)NC(=O)c1nc(Cl)c(N)nc1N` (centres unmarked) [compound 15143, N-(3,5-diamino-6-chloropyrazine-2-carbonyl)-N′-(4-{4-[3-(2,3-dihydroxypropoxy)-2-hydroxypropoxy]phenyl}butyl)guanidine], for which the melting point is 73 to 82 °C (dec.). The “Fold Amiloride** (PSA 4022 = 100)” value in series [1] (Capped Pyrazinoylguanidines) is 107 ± 11.

`N#CCOc1ccc(CCCCNC(=N)NC(=O)c2nc(Cl)c(N)nc2N)cc1` [compound 16208, N-[4-(4-cyanomethoxyphenyl)butyl]-N′-(3,5-diamino-6-chloro-pyrazine-2-carbonyl)guanidine] gave a melting point of 129 to 132 °C. Besides, the “Fold Amiloride** (PSA 4022 = 100)” value in series [1] (Capped Pyrazinoylguanidines) came to 52 ± 21. The matching figures for `N=C(NCCCCc1ccc(OCC(=O)Nc2ccccc2)cc1)NC(=O)c1nc(Cl)c(N)nc1N` [compound 17482, 2-(4-{4-[N′-(3,5-diamino-6-chloropyrazine-2-carbonyl)guanidino]-butyl}phenoxy)-N-phenylacetamide]: 168 to 170 °C and 39 ± 6. The matching figures for `CN(C)C(=S)Oc1ccc(CCCCNC(=N)NC(=O)c2nc(Cl)c(N)nc2N)cc1` [compound 17846, dimethylthiocarbamic acid O-(4-{4-[N′-(3,5-diamino-6-chloropyrazine-2-carbonyl)guanidino]butyl}phenyl) ester]: 102 to 105 °C and 104 ± 49. Turning to `Cl.N=C(NCCCCc1ccc(OCCCc2nnn[nH]2)cc1)NC(=O)c1nc(Cl)c(N)nc1N` [compound 17926, N-(3,5-diamino-6-chloropyrazine-2-carbonyl)-N′-(4-{4-[3-(1H-tetrazol-5-yl)propoxy]phenyl}butyl)guanidine hydrochloride], the melting point is 125 to 127 °C (dec.). For the same compound, the “Fold Amiloride** (PSA 4022 = 100)” value in series [1] (Capped Pyrazinoylguanidines) is listed as 29 ± 12. The term EC50 denotes the midpoint of the concentration-response curve. For `N=C(NCCCCCCCN)NC(=O)c1nc(Cl)c(N)nc1N` [compound 18705, N-(7-aminoheptyl)-N′-(3,5-diamino-6-chloropyrazine-2-carbonyl)guanidine], the melting point is 185 to 187 °C (dec.). The “Fold Amiloride** (PSA 4022 = 100)” value in series [1] (Alaphatic Pyrazinoylguanidines) is recorded as 8 ± 2. Further, the EC50 in series [1] was determined as 99 ± 31 nM. On to `CC(C)[C@H](NS(=O)(=O)c1ccc(CCCCNC(=N)NC(=O)c2nc(Cl)c(N)nc2N)cc1)C(N)=O.Cl` [compound 19008, (2S)-(4-{4-[N′-(3,5-diamino-6-chloropyrazine-2-carbonyl)guanidino]-butyl}benzenesulfonylamino)-3-methylbutyramide], for which the melting point is 154 to 156 °C (dec.). Also, the “Fold Amiloride** (PSA 4022 = 100)” value in series [1] (Capped Pyrazinoylguanidines) amounted to 54 ± 6. `CC(C)(C)OC(=O)NCCCCCCCCNC(=N)NC(=O)c1nc(Cl)c(N)nc1N` [compound 19156, {8-[N′-(3,5-diamino-6-chloropyrazine-2-carbonyl)guanidino]octyl}carbamic acid tert-butyl ester]: the melting point fell in the range of 189 to 191 °C. In addition, in series [1] (Alaphatic Pyrazinoylguanidines), the “Fold Amiloride** (PSA 4022 = 100)” value amounted to 18 ± 2. The EC50 in series [1] turned out to be 46 ± 20 nM. The matching figures for `CC(C)(C)OC(=O)NCCCOCCCNC(=N)NC(=O)c1nc(Cl)c(N)nc1N` [compound 19333]: 62 to 65 °C (dec.), 7 ± 2 and 81 ± 8 nM.
